This note sets out measurements from patent US8138360B2, “Isotopically-labeled benzofuran compounds as imaging agents for amyloidogenic proteins” (University of Pittsburgh—of the Commonwealth System of …, priority 2005, dated 2012).

The term Ki denotes a dissociation constant, usually derived from enzyme kinetics or from competition with a known ligand. Read a high Ki as lower affinity.

One series addresses T1, synthetic Aβ(1-40) (Homo sapiens, UniProt P05067).
T1 construct: host or cells: chemically synthesised peptide
The series is described as follows: Competition of [3H]BTA-1 binding from synthetic Aβ(1-40). To be noted: for Ki: inhibition constant for competition of [3H]BTA-1 binding from synthetic Aβ(1-40), phosphate-buffered saline pH 7.4. The protocol:
The characteristics of benzofuran derivative binding were analyzed using synthetic Aβ(1-40) and 2-(4′-[^3H]methylamino-phenyl)-benzothiazole ([^3H]BTA-1) in phosphate-buffered saline (pH 7.4) as previously described. Klunk et al., Life Sci. 69:1471 (2001); Mathis et al., Bioorg. Med. Chem. Lett., 12:295 (2002).
The characteristics of benzofuran derivative binding were analyzed using synthetic Aβ(1-40) and 2-(4′-[^3H]methylamino-phenyl)-benzothiazole ([^3H]BTA-1) in phosphate-buffered saline (pH 7.4), as previously described. Klunk et al., Life Sci. 69:1471 (2001); Mathis et al., Bioorg. Med. Chem. Lett., 12:295 (2002). The table below lists the inhibition constants (Ki) of the four compounds shown for competition of [^3H]BTA-1 binding from synthetic Aβ(1-40).

Series [1] in a line: Baboon brain entry study (PET). The format is in vivo. The following applies: 40 kg baboon, 8 mCi intravenously, PET imaging over 2 h post injection. The method, then: A 40 kg baboon was anesthetized, immobilized, and placed on a ventilator. The baboon was positioned in a PET scanner to image the brain, and a transmission scan was performed to correct for attenuation. The baboon was injected intravenously with a solution containing 8 mCi of 5-Methoxy-2-(4′-fluorophenyl)benzofuran, and the brain was imaged in a series of increasing data collection time bins over 2 h post injection. Following data acquisition, the images were reconstructed and regions of interest were drawn. Decay and […] corrected time-activity curves (TAC) were generated for each of the regions to determine the quantitative time course of radioactivity in each brain region.

T1 sequence (P05067 672-711): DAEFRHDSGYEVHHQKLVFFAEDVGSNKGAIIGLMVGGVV

For `Oc1ccc2oc(-c3ccc(F)cc3)cc2c1`, on synthetic Aβ(1-40), the affinity, expressed as Ki, was 27.7 nM. This lies in the double-digit nanomolar range.
The same measure, in the same setting: then `COc1ccc2cc(-c3ccc(F)cc3)oc2c1`, with 3.9 nM; and `Oc1ccc2cc(-c3ccc(F)cc3)oc2c1`, with 96 nM; and `Oc1ccc2oc(-c3ccc(OCCCF)cc3)cc2c1`, with 1.2 nM.
Take `Nc1ccc2oc(-c3ccc(F)cc3)cc2c1`: on synthetic Aβ(1-40), the affinity, expressed as Ki, was 28 nM.
The molecule `CNc1ccc2oc(-c3ccc(F)cc3)cc2c1` yielded a Ki at synthetic Aβ(1-40) of 2.8 nM. This Ki lies about 10-fold lower than the previous one.
For `CN(C)c1ccc2oc(-c3ccc(F)cc3)cc2c1`, the Ki on synthetic Aβ(1-40) was 2 nM.
Take `COc1ccc2oc(-c3ccc(F)cc3)cc2c1` [5-Methoxy-2-(4′-fluorophenyl)benzofuran]: in series [1], the “brain penetration of the radiotracer (time-activity curves)” value is “excellent brain penetration” and the “clearance of radioactivity from normal baboon brain (time-activity curves)” value is given as “rapid clearance”. Besides, the “affinity of the ligand in vitro for aggregated amyloid” value on synthetic Aβ(1-40) (in vitro, in words) is “relatively high affinity”.
For `COc1ccc2oc(-c3ccc(F)cc3)cc2c1` [drawing 23], the Ki at synthetic Aβ(1-40) stood at 3.7 nM. This counts as single-digit nanomolar.
